Experimental data published in patent US20250032460A1, “METHODS OF TREATING NEUROLOGICAL DISORDERS” (MapLight Therapeutics, Inc., priority 2021, published 2025).

Key:
[1] = Single ascending dose study: pharmacokinetics (plasma, CSF); format: in vivo
Procedure: Compound 1 was administered in a single ascending dose (SAD) study conducted in approximately 54 healthy adult volunteers to investigate Compound 1 pharmacokinetics, safety, and tolerability. The study was conducted in two groups.
(§1) Group 2 evaluated tolerability of Compound 1 at Group 1 MTD with or without fesoterodine fumarate co-administration. Subjects received 8 mg of fesoterodine fumarate tablet or matched placebo tablet 4 hours prior to administration of 40 mg of Compound 1.

[2] = Plasma pharmacokinetics after single-dose intravenous administration in rats; format: in vivo, Sprague Dawley rats; conditions: rat, in vivo, iv, 1.5 mg/kg
Procedure: The plasma concentration-time profile was evaluated for fesoterodine active metabolite desfesoterodine and Compound 1 in male Sprague Dawley rats following single-dose intravenous administration of fesoterodine (0.25 mg/kg) and Compound 1 (0.5 mg/kg and 1.5 mg/kg) alone and single-dose co-administration. Plasma exposures of desfesoterodine were similar following administration of fesoterodine alone and in combination with Compound 1.

salivation = assay: Single ascending dose study: salivation (pharmacodynamics); format: in vivo, healthy adult volunteers; conditions: Group 1, 1-40 mg Compound 1 (FIG. 1)
Procedure: MTD was established at the dose which produced mild to moderate cholinergic adverse effects. Cholinergic effects were monitored for each dose, including pupillometry and salivation.
as §1

[3] = Plasma concentrations during 7-day oral dosing in beagle dogs; format: in vivo; conditions: male, beagle, dog, in vivo, po, 1.5 mg/kg/day
in vivo = conditions: cynomolgus monkey, po
Procedure: The following example characterized the pharmacokinetics (PK) of Compound 1 in Cynomolgus Monkey following single oral (PO) Compound 1 dose administration. The compound was administered via oral gavage at 0.3 mg/kg and 1 mg/kg, formulated as solution in saline. After dosing, plasma was collected to characterize the PK profiles of Compound 1.

[4] = Group 2, 40 mg Compound 1, 8 mg fesoterodine fumarate
[5] = Plasma concentration of Compound 1, Mean

## Cc1noc([C@@]23CNC[C@@H]2C3)n1 [Compound 1, 1-(3-methyl-[1,2,4]oxadiazol-5-yl)-(1R,5R)-3-aza-bicyclo[3.1.0]hexane]
[1]; [4]
  increase in exposure of Compound 1 following co-administration of fesoterodine fumarate, AUC0-inf: 29.0%
  increase in exposure of Compound 1 following co-administration of fesoterodine fumarate, AUC0-t: 30.0%
[1]; Group 2, 40 mg Compound 1, 8 mg fesoterodine fumarate, p-value: 0.0347
  increase in exposure of Compound 1 following co-administration of fesoterodine fumarate, Cmax: 50.0%
[1]; human, in vivo, 1 h
  compound 1 concentration in CSF at 1hour post-dose, mean: 50.30 ng/mL
  mean compound 1 concentration in CSF at 1 hour post-dose: 56.96 ng/mL
[1]; human, in vivo, single oral doses, healthy subjects, read-out: median tmax
  Tmax: 0.65 to 1.17 h
[2]; male, Sprague Dawley
  Vss as fold of total body water (0.7 L/kg): approximately 2.4 fold
  plasma clearance as % of the normal liver blood flow in rats (55 mL/min/kg): approximately 50%
[2]; male, Sprague Dawley, AUClast of Compound 1
  AUC(0-t): 917 ng·h/mL
[2]; male, Sprague Dawley, C0 of Compound 1
  C0: 1520 ng/mL
[2]; male, Sprague Dawley, CL of Compound 1
  clearance: 27.2 mL/min/kg
[2]; male, Sprague Dawley, T1/2 of Compound 1
  half-life: 0.83 h
[2]; male, Sprague Dawley, VSS of Compound 1
  Vd: 1.71 L/kg
[2]
  PK parameters of Compound 1, single-agent vs co-administration with fesoterodine: comparable
salivation
  change in salivation with dose: increase in salivation was observed with increasing dose
[3]; 1 h
  Plasma concentration of Compound 1, Mean: 387 ng/mL
[3]; 2 h
  Plasma concentration of Compound 1, Mean: 470.6 ng/mL
[3]; 4 h
  Plasma concentration of Compound 1, Mean: 99.48 ng/mL
[3]; 8 h
  Plasma concentration of Compound 1, Mean: 17.098 ng/mL
[3]; [5]
  concentration at 1 h: 378 ng/mL
  concentration at 2 h: 288 ng/mL
  concentration at 4 h: 98.6 ng/mL
  concentration at 8 h: 14.7 ng/mL
In vivo; 0.3 mg/kg
  AUC(0-inf): 212 ng·h/mL
  AUC(0-t): 208 ng·h/mL
  Cmax: 216 ng/mL
  Tmax: 0.417 h
  half-life: 2.82 h
In vivo; 1 mg/kg
  AUC(0-inf): 988 ng·h/mL
  AUC(0-t): 982 ng·h/mL
  Cmax: 686 ng/mL
  Tmax: 1 h
  half-life: 2.28 h
